The source of these data is PubChem BioAssay (NCI).

Among the test systems are EKVX NSCLC; HOP-62 NSCLC; MDA-MB-435; OVCAR-5 ovarian; OVCAR-8 ovarian; SF-268 CNS; SK-OV-3 ovarian; SW-620 colon; U251 CNS.
Common to all, as to experiment: growth of human tumour cells (NCI), 48 h

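Results reflect a 48-hour exposure of cells in 96-well plates to compound at five concentrations. GI50: concentration for 50% inhibition of growth. Definition used: TGI = concentration required for complete inhibition of growth.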

As to `C#CCN(Cc1nc2cc(C(F)(F)F)ccc2nc1-c1ccccc1)c1ccc(F)cc1`, the GI50 was 23.1 µM in the assay on EKVX NSCLC; 34.7 µM in the assay with HOP-62 NSCLC; 38 µM with MDA-MB-435; 75.6 µM in the assay on OVCAR-5 ovarian; 29.4 µM in the assay on OVCAR-8 ovarian; 37.9 µM with SF-268 CNS. Moreover, the GI50 was 33.4 µM with SK-OV-3 ovarian, 26.4 µM with SW-620 colon and 38 µM in the assay on U251 CNS. Besides, the TGI with EKVX NSCLC is 66.2 µM; in the assay with HOP-62 NSCLC, over 100 µM; in the assay on MDA-MB-435, over 100 µM; in the assay on OVCAR-5 ovarian, over 100 µM; in the assay with OVCAR-8 ovarian, over 100 µM; in the assay with SF-268 CNS it was over 100 µM. Moreover, the TGI with SK-OV-3 ovarian, in the assay on SW-620 colon and in the assay with U251 CNS was over 100 µM in each case.

As to `COc1ccc(/C=C2\CCc3ccccc3C2=O)cc1OC`, the TGI with EKVX NSCLC was over 100 µM; with HOP-62 NSCLC it was over 100 µM; with OVCAR-5 ovarian, over 100 µM; with OVCAR-8 ovarian, over 100 µM; with SF-268 CNS, 62.6 µM; with SK-OV-3 ovarian it was 78.9 µM. Besides, the figures for the TGI in the assay on SW-620 colon and in the assay with U251 CNS were 82.5 µM and over 100 µM, respectively.

`CCN(CC)CCOc1ccc(Cc2ccccc2)cc1`: the GI50 with EKVX NSCLC was 26.4 µM; in the assay with HOP-62 NSCLC, 32.4 µM; with MDA-MB-435, 18.5 µM; in the assay on OVCAR-5 ovarian, 28.5 µM; with OVCAR-8 ovarian it was 60.6 µM; with SF-268 CNS, 35.3 µM. The GI50 in the assay with SK-OV-3 ovarian is 44 µM; in the assay with SW-620 colon, 17.4 µM; with U251 CNS, 26.5 µM. Also, the TGI in the assay with EKVX NSCLC is over 100 µM; in the assay on HOP-62 NSCLC, over 100 µM; in the assay with MDA-MB-435, 44.2 µM; in the assay with OVCAR-5 ovarian it was over 100 µM; in the assay on OVCAR-8 ovarian, over 100 µM; in the assay on SF-268 CNS, over 100 µM. Further, the TGI was over 100 µM in the assay on SK-OV-3 ovarian, 42.4 µM in the assay with SW-620 colon and over 100 µM with U251 CNS.

With `COC(=O)c1ccc(/C=C/S(=O)(=O)c2ccccc2)cc1`, the TGI with EKVX NSCLC, with HOP-62 NSCLC, in the assay with OVCAR-5 ovarian, with OVCAR-8 ovarian, with SF-268 CNS and in the assay with SK-OV-3 ovarian was over 100 µM throughout. The TGI in the assay on SW-620 colon and with U251 CNS was over 100 µM in each case.

Turning to `CCOc1ccc(N=Cc2ccc3ccccc3n2)cc1`, the TGI in the assay with EKVX NSCLC, in the assay with HOP-62 NSCLC, with OVCAR-5 ovarian, in the assay with OVCAR-8 ovarian, with SF-268 CNS and in the assay on SK-OV-3 ovarian was over 100 µM throughout. The TGI in the assay with SW-620 colon and with U251 CNS was over 100 µM in each case.

For `Cc1ccc(-c2cc(=O)c3cc(C)c(C)c(C(=O)O)c3o2)cc1[N+](=O)[O-]`, the TGI with EKVX NSCLC, in the assay with OVCAR-5 ovarian, in the assay on OVCAR-8 ovarian, in the assay on SF-268 CNS, in the assay with SK-OV-3 ovarian and with SW-620 colon was over 100 µM each time. Moreover, the TGI with U251 CNS was over 100 µM.

For `COc1ccc2c(c1OC)C(C=C(c1ccccc1)c1ccccc1)CN(C)C2` (stereo not drawn), the TGI with EKVX NSCLC was over 100 µM; in the assay with HOP-62 NSCLC it was 62.2 µM; in the assay on OVCAR-5 ovarian, 61.6 µM; with OVCAR-8 ovarian, 67 µM; in the assay with SF-268 CNS, 72.2 µM; with SK-OV-3 ovarian it was over 100 µM. Further, the TGI in the assay with SW-620 colon was 26.2 µM; in the assay on U251 CNS, 57.3 µM.

Turning to `COc1ccc(C[C@H]2NC[C@H](O)[C@H]2OC(C)=O)cc1`, the TGI with EKVX NSCLC came to 0.344 µM; in the assay with HOP-62 NSCLC, 0.193 µM; in the assay on MDA-MB-435, 0.193 µM; in the assay on OVCAR-5 ovarian, 14.5 µM; with OVCAR-8 ovarian, 0.0897 µM; with SF-268 CNS it was 1.03 µM. Moreover, the TGI with SK-OV-3 ovarian stood at 0.895 µM; in the assay on SW-620 colon, 0.15 µM; with U251 CNS, 2.02 µM.

`CN[C@H]1CC[C@]23C[C@]24CC[C@]2(C)[C@@H]([C@H](C)N(C)C)CC[C@@]2(C)[C@@H]4CC[C@H]3C1(C)C`: the TGI in the assay on EKVX NSCLC worked out at 37.9 µM; in the assay on MDA-MB-435 it was 29.8 µM; in the assay on OVCAR-5 ovarian it was 60.7 µM; in the assay on OVCAR-8 ovarian, 32.9 µM; in the assay on SF-268 CNS, 31.5 µM; in the assay on SK-OV-3 ovarian it was 38.2 µM. Besides, the TGI in the assay with SW-620 colon was found to be 32.5 µM; in the assay with U251 CNS, 27.6 µM.

As to `COc1ccc2c(c1)c(-c1ccc(-c3cn(C)c4ccc(OC)cc34)o1)cn2C`, the GI50 in the assay with EKVX NSCLC was 5.48 µM; in the assay on HOP-62 NSCLC it was over 100 µM; with MDA-MB-435 it was 32.9 µM; with OVCAR-5 ovarian, 2.79 µM; in the assay with OVCAR-8 ovarian, 8.02 µM; with SF-268 CNS, 9.24 µM. The results for the GI50 in the assay with SK-OV-3 ovarian, in the assay on SW-620 colon and in the assay on U251 CNS were over 100 µM, 4.55 µM and 3.66 µM, respectively. In addition, the TGI in the assay on EKVX NSCLC was 23.4 µM; in the assay with HOP-62 NSCLC, over 100 µM; in the assay with MDA-MB-435, over 100 µM; with OVCAR-5 ovarian, 10.6 µM; in the assay on OVCAR-8 ovarian it was over 100 µM; in the assay with SF-268 CNS, over 100 µM. In addition, the TGI with SK-OV-3 ovarian is over 100 µM; in the assay on SW-620 colon it was 16.7 µM; in the assay with U251 CNS, 13.4 µM.

As for `CSC1SCC2C(=O)N(C)C(C(C)C)C(=O)OCC(NC(=O)c3cnc4ccccc4n3)C(=O)NC(C)C(=O)N(C)C1C(=O)N(C)C(C(C)C)C(=O)OCC(NC(=O)c1cnc3ccccc3n1)C(=O)NC(C)C(=O)N2C` (stereo not drawn), the GI50 in the assay on EKVX NSCLC is under 0.001 µM; with HOP-62 NSCLC it was under 0.001 µM; in the assay on OVCAR-5 ovarian it was under 0.001 µM; in the assay with OVCAR-8 ovarian, under 0.001 µM; with SF-268 CNS, under 0.001 µM; in the assay with SK-OV-3 ovarian, 0.00174 µM. The GI50 with SW-620 colon and in the assay with U251 CNS was under 0.001 µM in each case.

On to `O=C1c2ccccc2-c2c1c1ccc([N+](=O)[O-])cc1c(=O)n2CCCn1ccnc1`, for which the GI50 is 6.16 µM in the assay on EKVX NSCLC; 0.173 µM with HOP-62 NSCLC; 1.55 µM in the assay with MDA-MB-435; 0.984 µM in the assay with OVCAR-5 ovarian; 0.118 µM in the assay on OVCAR-8 ovarian; 9.63 µM in the assay with SK-OV-3 ovarian. Also, the GI50 in the assay on U251 CNS is 0.157 µM. Besides, the TGI with EKVX NSCLC was over 21.8 µM; in the assay on HOP-62 NSCLC, 0.708 µM; in the assay with MDA-MB-435, 5.98 µM; with OVCAR-5 ovarian, 4.25 µM; in the assay on OVCAR-8 ovarian, 4.78 µM; in the assay with SF-268 CNS, 15.1 µM. Besides, the TGI in the assay with SK-OV-3 ovarian was over 39.5 µM; in the assay on SW-620 colon it was 0.529 µM; with U251 CNS, 0.69 µM.

Take `COc1c(Cl)[c]([Hg][O]C(C)=O)c(NCC(C)=O)c(OC)[c]1[Hg][O]C(C)=O`: the GI50 in the assay with EKVX NSCLC was 27.2 µM; in the assay with HOP-62 NSCLC, 22.3 µM; in the assay on OVCAR-5 ovarian, 38.7 µM; in the assay with OVCAR-8 ovarian, 13.6 µM; with SF-268 CNS, 11.4 µM; with SK-OV-3 ovarian, 24.5 µM. In addition, the GI50 is 19.6 µM in the assay on SW-620 colon and 10 µM with U251 CNS. Moreover, the TGI in the assay on EKVX NSCLC is 65.2 µM; in the assay on HOP-62 NSCLC it was 37.3 µM; in the assay on OVCAR-5 ovarian, 90.9 µM; in the assay on OVCAR-8 ovarian, 32.4 µM; in the assay on SF-268 CNS, 30.8 µM; in the assay on SK-OV-3 ovarian it was 45.6 µM. The TGI in the assay on SW-620 colon was 62.4 µM; in the assay on U251 CNS, 21.9 µM.

`CCC(C)(C)NS(=O)(=O)c1ccccc1`: the TGI in the assay with EKVX NSCLC, in the assay on HOP-62 NSCLC, in the assay with OVCAR-5 ovarian, in the assay on OVCAR-8 ovarian, in the assay on SK-OV-3 ovarian and in the assay on SW-620 colon was over 100 µM throughout. The TGI in the assay on U251 CNS was over 100 µM.

For `Cc1nc(-n2nc(-c3ccccc3)cc2-c2ccccc2)sc1C(=O)/C=C/c1ccc(Cl)cc1`, the TGI with EKVX NSCLC was over 100 µM; in the assay on HOP-62 NSCLC it was 34.4 µM; in the assay on OVCAR-5 ovarian it was over 100 µM; in the assay with OVCAR-8 ovarian it was over 100 µM; in the assay on SF-268 CNS, over 100 µM; with SK-OV-3 ovarian, over 100 µM. Further, the TGI is 61.1 µM in the assay with SW-620 colon and 36.9 µM with U251 CNS.

In the case of `O=C(Nc1ccc(N2CCNCC2)cn1)c1[nH]ncc1Nc1ncnc2sccc12`, the GI50 in the assay on EKVX NSCLC is 2.91 µM; in the assay with HOP-62 NSCLC it was 2.99 µM; with MDA-MB-435, 1.59 µM; with OVCAR-5 ovarian, 2.08 µM; with OVCAR-8 ovarian, 1.96 µM; with SK-OV-3 ovarian it was 10.6 µM. Also, the GI50 in the assay on SW-620 colon is 1.54 µM; with U251 CNS, 1.62 µM. Also, the TGI was 13.5 µM with EKVX NSCLC; 14.7 µM in the assay on HOP-62 NSCLC; 3.12 µM with MDA-MB-435; 5.19 µM in the assay on OVCAR-5 ovarian; 4.02 µM in the assay on OVCAR-8 ovarian; 25.7 µM in the assay on SK-OV-3 ovarian. In addition, the TGI in the assay with SW-620 colon turned out to be 3.19 µM; in the assay with U251 CNS it was 3.35 µM.

On to `COc1cc(/C=C2\Cc3ccccc3C2=O)cc(OC)c1OC`, for which the TGI with EKVX NSCLC, with HOP-62 NSCLC, with OVCAR-5 ovarian, with OVCAR-8 ovarian, with SF-268 CNS and in the assay with SK-OV-3 ovarian was over 100 µM each time. The TGI with SW-620 colon and in the assay with U251 CNS was over 100 µM in each case.

For the compound `CCCCCCC(O)C(O)CCC(O)C1CCC(CCCCC(O)CC2=CC(C)OC2=O)O1` (stereo not drawn), the GI50 was 0.291 µM with EKVX NSCLC; 12.4 µM in the assay with HOP-62 NSCLC; 23.7 µM in the assay on OVCAR-5 ovarian; 20.3 µM in the assay with SF-268 CNS; 36.5 µM in the assay with SW-620 colon; 15.1 µM with U251 CNS. In addition, the TGI in the assay on EKVX NSCLC came out at 12 µM; with HOP-62 NSCLC, 26 µM; with MDA-MB-435, 55.2 µM; with OVCAR-5 ovarian, 46.2 µM; with OVCAR-8 ovarian, 6.65 µM; in the assay with SF-268 CNS it was 48.8 µM. Further, the TGI in the assay with SW-620 colon and with U251 CNS was over 100 µM in each case.
